Measurements from patent US11213527B2, “Inhibitory effect of low molecular weight compound on cancer and fibrosis” (NATIONAL UNIVERSITY CORPORATION TOTTORI UNIVERSITY, priority 2014, dated 2022).

Assays:
[1] = tested on: CD44-expressing HSC2 cells; test: Inhibitory effect on cancer stem cells in squamous cell carcinoma (CD44 FACS); format: cell-based, human; conditions: 5-FU 0.5 μM, IC-2 25 μM, PN-3-13 7.5 μM, HC-1 50 μM, 48 hours, no treatment 83.9%
Method: First, 5×10^5 of HSC2 cells were plated on a 10-cm dish. After 24 hours, the cells were treated with 5-FU (0.5 μM), IC-2 (25 μM), PN-3-13 (7.5 μM), or HC-1 (50 μM). Also, some of the cells were prepared without low-molecular-weight compound treatment (0 μM). After additional 48 hours, the cells were harvested. An anti-human CD44 antibody (Abcam Ltd., Cambridge, UK) was used as a primary antibody and an Alexa 488-labeled goat anti-mouse IgG antibody (Life Technologies Corp., Carlsbad, Calif., USA) was then used. After that, analysis was performed by using a cell sorter, BD bioscience FACS Aria (BD Biosciences, CA, USA). Note that the concentration of each low-molecular-weight compound was determined on the basis of the IC50 concentration at 48 hours in a WST assay.

[2] = tested on: CD44-positive HuH7 cells (cancer stem cells); test: Inhibitory effect on cancer stem cells (FACS analysis, CD44); format: cell-based, human; conditions: IC-2 50 μM, PN3-13 10 μM, 5-FU 0.5 μM, two days, vs DMSO control
Method: The following protocol was used to investigate an inhibitory effect of each low-molecular-weight compound on cancer stem cells. CD44, a cancer stem cell marker, was used as an index. HuH7 cells at 70 to 90% confluency were collected and 1.5×10^6 cells were seeded on a 10-cm dish (TPP Techno Plastic Products AG, Trasadingen, Switzerland). After 15 hours, the cells were treated with each of Hexachlorophene (15 μM), ICG-001 (15 μM), PKF118-310 (5 μM), IC-2 (50 μM), PN3-13 (10 μM), and 5-FU (0.5 μM) and were incubated at 37° C. DMSO, which was a solvent for each of the low-molecular-weight compounds and anti-cancer drugs, was used as a control. Two days after the chemical treatment, the cells on a dish were collected. Next, the cells were centrifuged at 1000 rpm for 5 min at 4° C. to remove a supernatant. Then, the cells were washed twice with 1 mL of 0.5% FBS/2 mM EDTA/PBS. After that, the cells were suspended in 500 μL of 5% BSA/0.5% FBS/2 mM EDTA/PBS and blocked once for 15 min at 4° C.
Next, 5 μL of an anti-human CD44 monoclonal antibody (Cell Signaling Technology Inc., Danvers, Mass., USA) was added. Then, the cells were suspended and a primary antibody reaction was performed in a dark room for 10 min at 4° C. After that, the cells were washed 3 times with 1 mL of PBS. […] Note that a significant difference was evaluated by using Student's t-test (two-tailed). […]

CD44^high DLD-1 cells = test: Inhibitory effect on cancer stem cells in colon cancer (CD44 FACS); format: cell-based, human; conditions: IC-2 50 μM, 5-FU 0.5, 5 μM, 48 hours, vs control
Method: First, 1×10^6 DLD-1 cells were seeded on a 10-cm dish. After 24 hours, the cells were treated with 5-FU (0.5, 5 μM) or IC-2 (50 μM). After additional 48 hours, the cells were harvested. An anti-human CD44 antibody (Abcam Ltd., Cambridge, UK) was used as a primary antibody and an Alexa 488-labeled goat anti-mouse IgG antibody (Life Technologies Corp., Carlsbad, Calif., USA) was then used. After that, analysis was performed by using a MoFlo XDP (Beckman Coulter Inc., Fullerton, Calif.).

Wnt/β-catenin signal = test: Luciferase assay in HuH7 cells stably expressing pTCF4-CMVpro-Luc; format: cell-based; conditions: HuH7 reporter cells; two days after treatment
Method: First, 30 μg of a pTCF4-CMVpro-Luc was added to 5×10^6 HuH7 cells and the plasmid was introduced using a Cellject Pro (Thermo, Massachusetts, USA) (at 250 V, 1500 μF). Twenty-four hours after the gene introduction, 2 μg/mL of puromycin was added. Then, the cells were selected while a medium was changed every 3 to 5 days. It was observed that colonies of the pTCF4-CMVpro-Luc-containing HuH7 cells were formed at 20 days after initiation of the selection. A cloning ring, which was manufactured such that an end portion of a blue tip was cut, (the bottom edge of the cloning ring was provided with vaseline), was then used to surround one of the colonies formed. Subsequently, 30 μL of a 0.25% Trypsin/1 mM EDTA solution, which was prepared by diluting a stock solution 5-fold with PBS, was added to detach and collect the cells. […]
Next, a luciferase assay was conducted. […] Subsequently, 10 μL of the cell lysate prepared by using PLB in the 24-well plate was added to the tube, and the luciferase activity was measured by using a MiniLumat LB 9506 (Berthold Technologies, Bad Wildbad, German).
First, the HuH7 cells that were at 70 to 90% confluency and stably expressed the pTCF4-CMVpro-Luc were collected, and the 1×10^4 cells were seeded in each well of a 96-well plate (FALCON). […] Then, a fluorescence plate reader Infinite F500 (TECAN, Zurich, Switzerland) was used to measure luciferase activity.

Compound | proportion of CD44-expressing cells [1] [%] | number of cancer stem cells (CD44-positive cells) [2] | proportion of CD44^high cells (CD44^high DLD-1 cells) | inhibitory effect on a Wnt/β-catenin signal (luciferase activity) (Wnt/β-catenin signal)
O=c1[nH]cc(F)c(=O)[nH]1 [5-FU, reference compound] | 83.3 | rather increased the number of cancer stem cells | rather increased the proportion | exerted no inhibitory effect
O=C1[C@H](Cc2ccccc2)N2C(=O)CCN(C(=O)NCc3ccccc3)[C@H]2CN1Cc1cccc2ccccc12 [IC-2] | 71.4 | significantly less than that of the control | significantly decreased the proportion of CD44^high cells | exerted an inhibitory effect
